Patent US20120302607A1, “C4-SUBSTITUTED ALPHA-KETO OXAZOLES” (The Scripps Research Institute, priority 2008, published 2012)
Like-named read-outs stand apart in the source and are kept apart here.

Tests used:
[1] = biological target: T1, FAAH (UniProt O08914); assay: Proteome-wide serine hydrolase selectivity screening, FAAH; type: biochemical, human
T1 sequence (O08914 1-579): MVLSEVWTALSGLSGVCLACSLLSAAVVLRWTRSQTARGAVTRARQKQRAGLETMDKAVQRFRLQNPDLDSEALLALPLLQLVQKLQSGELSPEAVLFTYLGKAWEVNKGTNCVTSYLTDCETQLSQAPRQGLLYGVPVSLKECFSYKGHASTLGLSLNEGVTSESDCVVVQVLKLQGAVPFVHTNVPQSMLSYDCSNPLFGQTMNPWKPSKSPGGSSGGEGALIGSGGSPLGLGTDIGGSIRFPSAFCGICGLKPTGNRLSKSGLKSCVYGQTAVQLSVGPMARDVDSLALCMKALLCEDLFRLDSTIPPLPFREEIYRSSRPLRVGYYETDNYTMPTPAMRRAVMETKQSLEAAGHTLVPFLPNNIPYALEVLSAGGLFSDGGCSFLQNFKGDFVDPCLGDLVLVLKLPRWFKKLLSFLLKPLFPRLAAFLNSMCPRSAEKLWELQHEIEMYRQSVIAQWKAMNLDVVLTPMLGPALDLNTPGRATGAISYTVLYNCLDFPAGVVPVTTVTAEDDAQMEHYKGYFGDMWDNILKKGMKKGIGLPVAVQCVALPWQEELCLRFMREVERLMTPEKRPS

[2] = biological target: T2, membrane-associated hydrolase (KIAA1363) (UniProt Q8BLF1); assay: Proteome-wide serine hydrolase selectivity screening, KIAA1363; type: biochemical; details: selectivity screening
T2 sequence (Q8BLF1 1-408): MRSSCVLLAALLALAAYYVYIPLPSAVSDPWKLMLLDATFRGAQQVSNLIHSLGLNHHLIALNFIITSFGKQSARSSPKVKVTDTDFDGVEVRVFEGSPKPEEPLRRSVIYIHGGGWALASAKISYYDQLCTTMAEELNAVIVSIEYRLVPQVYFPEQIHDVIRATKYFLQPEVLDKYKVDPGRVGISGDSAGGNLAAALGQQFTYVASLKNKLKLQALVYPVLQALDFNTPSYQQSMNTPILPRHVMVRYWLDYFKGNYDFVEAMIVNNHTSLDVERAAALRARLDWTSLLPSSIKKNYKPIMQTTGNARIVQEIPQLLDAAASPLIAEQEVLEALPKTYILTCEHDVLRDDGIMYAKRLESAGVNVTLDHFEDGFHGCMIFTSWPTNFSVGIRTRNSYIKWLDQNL

[3] = system: membrane-associated hydrolase (KIAA1363); assay: as above; type: biochemical; details: value in parentheses; FAAH versus KIAA1363
[4] = system: triacylglycerol hydrolase (TGH); assay: Proteome-wide serine hydrolase selectivity screening, TGH; type: biochemical, human; details: FAAH versus TGH; for TGH (selectivity): value in parentheses
[5] = biological target: T3, triacylglycerol hydrolase (TGH) (UniProt Q8VCT4); assay: as above; type: biochemical, human; details: selectivity screening
T3 sequence (Q8VCT4 1-565): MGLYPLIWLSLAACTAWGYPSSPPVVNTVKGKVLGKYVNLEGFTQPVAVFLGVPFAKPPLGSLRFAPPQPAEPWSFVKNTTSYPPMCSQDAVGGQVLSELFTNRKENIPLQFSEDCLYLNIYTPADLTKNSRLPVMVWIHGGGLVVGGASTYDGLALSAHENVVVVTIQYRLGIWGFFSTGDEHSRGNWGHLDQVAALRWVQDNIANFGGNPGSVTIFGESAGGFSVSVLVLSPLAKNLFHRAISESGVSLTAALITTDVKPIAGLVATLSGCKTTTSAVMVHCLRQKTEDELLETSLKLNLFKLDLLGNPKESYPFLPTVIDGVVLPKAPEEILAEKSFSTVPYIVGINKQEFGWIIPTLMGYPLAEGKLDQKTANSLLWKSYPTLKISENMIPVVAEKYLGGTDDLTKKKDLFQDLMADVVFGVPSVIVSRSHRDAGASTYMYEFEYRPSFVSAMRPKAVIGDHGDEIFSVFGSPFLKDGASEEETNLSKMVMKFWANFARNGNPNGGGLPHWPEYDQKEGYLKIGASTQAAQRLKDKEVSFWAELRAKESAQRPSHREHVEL

[6] = biological target: T4, truncated rat FAAH (rFAAH) (Rattus norvegicus, UniProt P97612); assay: Rat FAAH inhibition enzyme assay (14C-oleamide hydrolysis, Dixon plot); type: biochemical
T4 construct: The truncated rat FAAH (rFAAH) was expressed in E. coli and purified as described by Patricelli et al; made in house; host or cells: E. coli
T4 sequence (P97612 30-579 limits assumed): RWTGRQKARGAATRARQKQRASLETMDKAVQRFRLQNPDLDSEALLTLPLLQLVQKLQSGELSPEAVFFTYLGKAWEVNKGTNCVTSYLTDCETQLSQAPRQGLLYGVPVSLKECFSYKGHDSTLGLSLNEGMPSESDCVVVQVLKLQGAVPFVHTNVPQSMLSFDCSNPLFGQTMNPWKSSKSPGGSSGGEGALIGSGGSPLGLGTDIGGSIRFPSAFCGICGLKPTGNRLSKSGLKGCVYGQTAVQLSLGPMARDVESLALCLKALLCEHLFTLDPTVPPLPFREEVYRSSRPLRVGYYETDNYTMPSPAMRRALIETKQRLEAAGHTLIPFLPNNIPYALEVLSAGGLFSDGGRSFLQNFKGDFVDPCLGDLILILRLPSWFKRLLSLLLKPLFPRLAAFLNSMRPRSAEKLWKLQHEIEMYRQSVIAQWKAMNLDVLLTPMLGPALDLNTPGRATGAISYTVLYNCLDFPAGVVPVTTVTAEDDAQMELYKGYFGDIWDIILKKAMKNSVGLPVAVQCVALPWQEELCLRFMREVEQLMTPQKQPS
Procedure: The purified recombinant rFAAH was used in the inhibition assays unless otherwise indicated.
The ^14C-labeled oleamide (substrate) and oleic acid (product) were extracted with EtOAc and analyzed by TLC. The Ki of the inhibitor was calculated using a Dixon plot (standard deviations are provided in the Supporting Information tables).

[7] = Table 1, purified recombinant rFAAH, pH 9.0, read-out: Rat FAAH inhibition Ki
[8] = Table 4, value ± error, read-out: Ki, inhibition results with calculated errors

Structure (SMILES)	IC50 [1] [nM]	IC50 [2] [nM]	KIAA1363 (selectivity) [3]	enhancement in FAAH selectivity ([4]; relative to 4a, text b175)	TGH (selectivity) [4]	IC50 [5] [nM]	Ki [6, 7] [nM]	Ki ([6]; Table 2, read-out: FAAH Ki) [nM]	Ki [6, 8] [nM]
O=C(CCCCCCc1ccccc1)c1nc(C(F)(F)F)co1 [Compound 4t, 7-Phenyl-1-(4-(trifluoromethyl)oxazol-2-yl)heptan-1-one]	400	10000	(25)	–	(0.15)	60	3.7	3.7	3.7 ± 0.02
O=C(O)c1coc(C(=O)CCCCCCc2ccccc2)n1 [Compound 4o, 2-(7-Phenylheptanoyl)oxazole-4-carboxylic Acid]	500	> 100000	(>200)	–	(5)	2500	53	53	53 ± 1

Stronger by IC50 [1], values ahead:

IC50 [1] [nM]	IC50 [2] [nM]	KIAA1363 (selectivity) [3]	enhancement in FAAH selectivity ([4]; relative to 4a, text b175)	TGH (selectivity) [4]	IC50 [5] [nM]	Ki [6, 7] [nM]	Ki ([6]; Table 2, read-out: FAAH Ki) [nM]	Ki [6, 8] [nM]	Structure (SMILES)
140	> 100000	(>700)	–	(5)	700	1.6	1.7	1.6 ± 0.01	O=C(CCCCCCc1ccccc1)c1nc(-c2ccncc2)co1 [Compound 4m, 7-phenyl-1-(4-(pyridin-4-yl)oxazol-2-yl)heptan-1-one]
70	> 100000	(>1400)	–	(3)	200	–	0.3	–	O=C(CCCCCCc1ccccc1)c1ncc(C(F)(F)F)o1 [Compound 5a, reference compound]
30	> 100000	(>3000)	> 40,000 fold	(330)	10000	1.9	1.9	1.9 ± 0.02	O=C(CCCCCCc1ccccc1)c1nc(-c2ccccn2)co1 [Compound 4k, 7-Phenyl-1-(4-(pyridin-2-yl)oxazol-2-yl)heptan-1-one]
20	30000	(1500)	–	(1.5)	30	0.5	0.6	0.5 ± 0.009	N#Cc1coc(C(=O)CCCCCCc2ccccc2)n1 [Compound 4s, 2-(7-Phenylheptanoyl)oxazole-4-carbonitrile]
